Reference: the supplement of paper PMC10307832

Assays:
Experiment in all cases: relative viability (nuclei count vs DMSO), 5 days (fraction); higher = more cells survive
DM3189 + Alpelisib = compound: C1CN(CCN1)C2=CC=C(C=C2)C3=CN4C(=C(C=N4)C5=CC=NC6=CC=CC=C56)N=C3 [DM3189] + Cc1nc(NC(=O)N2CCC[C@H]2C(N)=O)sc1-c1ccnc(C(C)(C)C(F)(F)F)c1 [Alpelisib] (partner 2 µM)
How it was run: (§1)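 Lung cancer cell lines were pin-tool dosed in 1536-well plates on the day after seeding, with either a lone drug or a fixed anchor-drug dose plus five library-drug doses (not always all listed) in √10 steps. Nuclei were counted on 4× images after 5 days. Relative viability is the ratio of treated-well to vehicle-well nuclei counts, with each value a median of duplicate plates.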

DM3189 + Pemetrexed = compound: C1CN(CCN1)C2=CC=C(C=C2)C3=CN4C(=C(C=N4)C5=CC=NC6=CC=CC=C56)N=C3 [DM3189] + Nc1nc2[nH]cc(CCc3ccc(C(=O)N[C@@H](CCC(=O)O)C(=O)O)cc3)c2c(=O)[nH]1 [Pemetrexed] (partner 0.2 µM)
How it was run: as §1

DM3189 + Decitabine = compound: C1CN(CCN1)C2=CC=C(C=C2)C3=CN4C(=C(C=N4)C5=CC=NC6=CC=CC=C56)N=C3 [DM3189] + Nc1ncn([C@H]2C[C@H](O)[C@@H](CO)O2)c(=O)n1 [Decitabine] (partner 2 µM)
How it was run: as §1

DM3189 + Vorinostat = compound: C1CN(CCN1)C2=CC=C(C=C2)C3=CN4C(=C(C=N4)C5=CC=NC6=CC=CC=C56)N=C3 [DM3189] + O=C(CCCCCCC(=O)Nc1ccccc1)NO [Vorinostat] (partner 1 µM)
How it was run: as §1

DM3189 + Olaparib = compound: C1CN(CCN1)C2=CC=C(C=C2)C3=CN4C(=C(C=N4)C5=CC=NC6=CC=CC=C56)N=C3 [DM3189] + O=C(c1cc(Cc2n[nH]c(=O)c3ccccc23)ccc1F)N1CCN(C(=O)C2CC2)CC1 [Olaparib] (partner 8 µM)
How it was run: as §1

| Cell Line | relative viability (DM3189 + Alpelisib; first compound 0.08 µM) | relative viability (DM3189 + Alpelisib; first compound 0.253 µM) | relative viability (DM3189 + Alpelisib; first compound 0.8 µM) | relative viability (DM3189 + Alpelisib; first compound 2.53 µM) | relative viability (DM3189 + Pemetrexed; first compound 0.08 µM) | relative viability (DM3189 + Pemetrexed; first compound 0.253 µM) | relative viability (DM3189 + Pemetrexed; first compound 0.8 µM) | relative viability (DM3189 + Pemetrexed; first compound 2.53 µM) | relative viability (DM3189 + Decitabine; first compound 0.08 µM) | relative viability (DM3189 + Decitabine; first compound 0.253 µM) | relative viability (DM3189 + Decitabine; first compound 0.8 µM) | relative viability (DM3189 + Decitabine; first compound 2.53 µM) | relative viability (DM3189 + Vorinostat; first compound 0.08 µM) | relative viability (DM3189 + Vorinostat; first compound 0.253 µM) | relative viability (DM3189 + Vorinostat; first compound 0.8 µM) | relative viability (DM3189 + Vorinostat; first compound 2.53 µM) | relative viability (DM3189 + Olaparib; first compound 0.08 µM) | relative viability (DM3189 + Olaparib; first compound 0.253 µM) | relative viability (DM3189 + Olaparib; first compound 0.8 µM) | relative viability (DM3189 + Olaparib; first compound 2.53 µM) |
| --- | --- | --- | --- | --- | --- | --- | --- | --- | --- | --- | --- | --- | --- | --- | --- | --- | --- | --- | --- | --- |
| BEN | 0.917 | 1 | 1.03 | 0.934 | 0.985 | 0.72 | 0.776 | 0.796 | 0.7 | 0.707 | 0.714 | 0.752 | 0.609 | 0.547 | 0.541 | 0.636 | 1.13 | 1.12 | 0.852 | 1.08 |
| NCI-H2085 | 0.968 | 0.962 | 0.976 | 0.893 | 0.885 | 0.886 | 0.941 | 0.869 | 0.504 | 0.565 | 0.564 | 0.591 | 0.87 | 0.742 | 0.795 | 0.906 | 0.735 | 0.804 | 0.804 | 0.883 |
| NCI-H1355 | 0.884 | 0.81 | 0.678 | 0.812 | 1.03 | 0.986 | 0.821 | 1.03 | 0.337 | 0.39 | 0.345 | 0.37 | 0.64 | 0.636 | 0.504 | 0.565 | 0.723 | 0.687 | 0.689 | 0.785 |
| NCI-H1793 | 0.758 | 0.877 | 0.982 | 1.16 | 1.03 | 1.18 | 1.1 | 1.47 | 0.55 | 0.458 | 0.461 | 0.541 | 0.993 | 0.633 | 0.911 | 1.12 | 0.998 | 0.943 | 0.702 | 1.15 |
| COR-L 105 | 1.17 | 1.16 | 1.01 | 1.26 | 1.13 | 1.22 | 1.26 | 1.13 | 0.781 | 0.689 | 0.535 | 0.635 | 0.867 | 0.73 | 0.835 | 0.803 | 0.855 | 0.772 | 0.545 | 0.812 |
| NCI-H23 | 0.768 | 0.741 | 0.675 | 0.699 | 0.759 | 0.635 | 0.641 | 0.676 | 0.308 | 0.304 | 0.284 | 0.314 | 0.668 | 0.51 | 0.564 | 0.539 | 0.253 | 0.305 | 0.233 | 0.294 |
| PC-14 | 0.983 | 0.996 | 0.768 | 1.1 | 0.142 | 0.125 | 0.14 | 0.122 | 0.303 | 0.237 | 0.21 | 0.253 | 0.733 | 0.7 | 0.674 | 0.533 | 0.277 | 0.238 | 0.264 | 0.226 |
| EMC-BAC-2 | 0.684 | 0.432 | 0.718 | 0.8 | 0.47 | 0.395 | 0.406 | 0.486 | 0.954 | 0.968 | 0.909 | 1.01 | 0.53 | 0.439 | 0.477 | 0.741 | 0.5 | 0.455 | 0.339 | 0.492 |
| LU99A | 0.468 | 0.422 |  | 0.384 | 0.185 | 0.233 |  | 0.161 | 1.09 | 0.837 |  | 0.777 | 0.492 | 0.434 |  | 0.458 | 0.296 | 0.274 |  | 0.264 |
| RERF-LC-KJ | 0.932 | 0.829 | 0.895 | 0.937 | 0.461 | 0.471 | 0.469 | 0.559 | 0.754 | 0.615 | 0.757 | 0.618 | 0.858 | 0.729 | 0.661 | 0.715 | 0.942 | 0.889 | 0.823 | 0.833 |
| NCI-H647 | 1.01 | 0.704 | 0.659 | 0.179 | 0.185 | 0.178 | 0.173 | 0.146 | 0.365 | 0.43 | 0.418 | 0.403 | 0.624 | 0.531 | 0.562 | 0.343 | 0.459 | 0.492 | 0.368 | 0.163 |
| LCLC-97TM1 | 0.163 | 0.239 | 0.219 | 0.185 | 0.182 | 0.17 | 0.136 | 0.167 | 0.263 | 0.201 | 0.197 | 0.228 | 0.73 | 0.647 | 0.687 | 0.751 | 0.415 | 0.314 | 0.281 | 0.397 |
| NCI-H2009 | 1.17 | 1.16 | 1.13 | 1.15 | 1.07 | 0.988 | 0.985 | 1 | 0.416 | 0.354 | 0.412 | 0.417 | 0.705 | 0.647 | 0.733 | 0.888 | 0.894 | 0.645 | 0.638 | 0.689 |
| HARA | 0.801 | 0.766 | 0.787 | 0.958 | 0.239 | 0.205 | 0.227 | 0.232 | 0.523 | 0.574 | 0.531 | 0.555 | 0.596 | 0.539 | 0.606 | 0.622 | 1.23 | 0.733 | 0.579 | 0.654 |
| NCI-H520 | 0.837 | 0.633 | 0.637 | 0.48 | 0.603 | 0.492 | 0.49 | 0.296 | 0.534 | 0.399 | 0.521 | 0.336 | 0.712 | 0.633 | 0.57 | 0.292 | 0.348 | 0.339 | 0.293 | 0.233 |
| EKVX | 0.944 | 0.77 | 0.807 | 0.869 | 0.499 |  | 0.302 | 0.368 | 0.331 |  | 0.359 | 0.363 | 0.856 | 0.72 | 0.678 | 0.62 | 1.06 |  | 0.517 | 0.814 |
| NCI-H1755 | 0.848 | 0.877 | 0.815 | 0.926 | 0.418 | 0.555 | 0.502 | 0.395 | 0.739 | 0.694 | 0.729 | 0.671 | 0.771 | 0.659 | 0.695 | 0.685 | 0.821 | 0.831 | 0.717 | 0.922 |
| NCI-H1395 | 0.927 | 0.871 | 1.04 | 1.34 | 1.13 | 0.786 |  | 0.806 | 0.663 | 0.703 |  | 0.712 | 1.08 | 0.616 |  | 0.731 | 0.421 | 0.463 |  | 0.39 |
| NCI-H2126 | 0.838 | 0.745 | 0.763 | 0.805 | 0.717 | 0.624 | 0.565 | 0.652 | 0.558 | 0.547 | 0.53 | 0.61 | 0.998 | 0.769 | 0.742 | 0.705 | 0.99 | 0.89 | 0.896 | 0.991 |
| H3255 | 0.834 | 0.739 | 0.681 | 0.847 | 0.682 | 0.537 | 0.555 | 0.559 | 0.718 | 0.748 | 0.473 | 0.71 | 1.11 | 0.826 | 0.845 | 0.89 | 0.576 | 0.573 | 0.547 | 0.627 |
| SK-MES-1 | 0.937 | 0.873 | 0.738 | 0.782 | 1.12 | 0.962 | 0.822 | 0.849 | 0.461 | 0.418 | 0.317 | 0.361 | 1.34 | 1.01 | 0.787 | 0.875 | 0.679 | 0.546 | 0.594 | 0.348 |
| NCI-H2347 | 0.969 | 1 | 0.989 | 1.14 | 0.473 | 0.51 | 0.432 | 0.518 | 0.591 | 0.622 | 0.576 | 0.668 | 0.554 | 0.626 | 0.61 | 0.658 | 0.544 | 0.53 | 0.522 | 0.55 |
| HCC-827 | 1.1 | 0.888 | 0.847 | 1.03 | 0.279 | 0.244 | 0.249 | 0.275 | 0.34 | 0.311 | 0.324 | 0.296 | 1.04 | 0.821 | 0.876 | 0.681 | 0.665 | 0.573 | 0.511 | 0.698 |
| HCC-78 | 0.635 | 0.315 |  | 0.311 | 0.918 | 0.918 | 0.848 | 0.927 | 0.723 | 0.644 | 0.632 | 0.625 | 0.41 | 0.453 | 0.51 | 0.557 | 0.763 | 0.659 | 0.586 | 0.944 |
| NCI-H1993 |  | 0.671 | 0.641 | 0.7 | 0.622 | 0.626 | 0.545 | 0.541 | 0.579 | 0.654 | 0.571 | 0.499 | 0.856 | 0.803 | 0.813 | 0.854 | 1.05 | 1.13 | 1.02 | 1.13 |
| NCI-H1975 | 0.869 | 0.718 | 0.658 | 0.342 | 0.27 | 0.281 | 0.266 | 0.278 | 0.374 | 0.41 | 0.361 | 0.336 | 0.803 | 0.732 | 0.701 | 0.687 | 0.952 | 0.777 | 0.646 | 0.639 |
| COR-L23 | 0.749 | 0.634 | 0.645 | 0.636 | 0.181 | 0.179 | 0.174 | 0.21 | 0.424 | 0.39 | 0.348 | 0.434 | 0.454 | 0.537 | 0.387 | 0.37 | 0.439 | 0.264 | 0.245 | 0.303 |
| UMC-11 | 0.994 | 0.998 | 0.794 | 0.749 | 0.845 | 0.763 | 0.814 | 0.562 | 0.616 | 0.506 | 0.602 | 0.511 | 0.356 | 0.349 | 0.358 | 0.281 | 0.395 | 0.37 | 0.35 | 0.458 |
